Test [1] has as its target T1, PAD1 (Homo sapiens, UniProt Q9ULC6).
T1 construct: made in house
T1 sequence (Q9ULC6 1-663): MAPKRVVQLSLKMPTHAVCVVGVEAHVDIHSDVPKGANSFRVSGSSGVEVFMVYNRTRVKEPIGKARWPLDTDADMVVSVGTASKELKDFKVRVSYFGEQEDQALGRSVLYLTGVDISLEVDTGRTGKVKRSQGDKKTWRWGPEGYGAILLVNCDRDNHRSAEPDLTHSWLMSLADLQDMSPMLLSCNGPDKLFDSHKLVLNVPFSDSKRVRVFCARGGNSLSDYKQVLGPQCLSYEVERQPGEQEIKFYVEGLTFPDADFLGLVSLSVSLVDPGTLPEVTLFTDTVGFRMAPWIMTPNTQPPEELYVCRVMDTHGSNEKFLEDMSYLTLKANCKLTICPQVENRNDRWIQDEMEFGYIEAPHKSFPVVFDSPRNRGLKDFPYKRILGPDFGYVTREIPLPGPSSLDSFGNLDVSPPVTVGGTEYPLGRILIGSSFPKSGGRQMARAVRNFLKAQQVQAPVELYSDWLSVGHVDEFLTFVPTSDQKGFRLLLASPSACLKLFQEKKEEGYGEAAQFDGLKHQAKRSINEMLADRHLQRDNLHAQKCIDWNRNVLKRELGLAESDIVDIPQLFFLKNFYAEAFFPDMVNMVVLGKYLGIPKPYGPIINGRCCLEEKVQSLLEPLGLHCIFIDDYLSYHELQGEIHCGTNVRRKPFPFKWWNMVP
In words: Limit of detection of PAD1 labelling in HEK293TPAD1 cells by probe. Format: cell-based. The conditions noted are these: 5 μM probe, 3 h; calculated from PAD1 content 0.06% of the total protein. The method, then: FIG. 16. (A) Time-dependent labelling of PAD1 in HEK293TPAD1 cells by 21. HEK293TPAD1 cells were treated with 21 (5 μM) in serum-free DMEM for various times. After the treatment, cells were harvested and flash-frozen in liquid nitrogen. Cell lysates were treated with TAMRA-N3, TCEP, TBTA and CuSO4 for 2 h at room temperature. Time-dependent labelling of PAD1 by 21 was recorded on a Typhoon scanner. (B) Limit of detection of PAD1 in HEK293TPAD1 cells by 21. For this study, cells were treated with 5 μM of 21 in serum-free DMEM for 3 h and decreasing amounts (indicated by total protein content) of lysates were clicked with TAMRA-N3 in the presence of TCEP, TBTA and freshly prepared CuSO4. […] F stands for fluorograph.
Dose-dependent Labelling of PAD1 in HEK293TPAD1 cells with 21. HEK293TPAD1 cells were plated in 6-well plates at a density of ˜1×10^6 cells/well and were allowed to grow in DMEM (supplemented with 10% heat-inactivated fetal bovine serum, 100 units/mL penicillin, 100 μg/mL streptomycin and 0.15 mg/mL hygromycin B) for 12 h. […] Soluble proteins in the lysate were quantified by DC-assay (Bio-Rad). […] Protein bands were visualized by recording in-gel fluorescence using a typhoon scanner (approximate excitation/emission maxima ˜546/579, respectively). […]

Test [2] has as its target T1, PAD1. In words: Inhibition of RFA labelling of PAD1 (ABPP assay). Format: binding. As to conditions: PAD1 2 μM, RFA 2 μM, 37° C., 2 h. The source says: The halogen-dependent change in potency of the PAD1 inhibitors was further confirmed using an activity-based protein profiling (ABPP) assay that uses the PAD-targeted probe, rhodamine-conjugated F-amidine (RFA, FIG. 2C).
RFA enables the covalent modification and fluorescent labelling of PADs with the help of its fluoroacetamidine and rhodamine moieties, respectively. However, in the presence of a PAD inhibitor that can compete for binding to the active site, RFA labelling is inhibited. […] Similar results were obtained with the chloroacetamidine-containing compounds 2, 12, 14 and 8 (FIG. 9).
RFA labelling. RFA labelling of PAD1 in the presence of inhibitors followed a protocol similar to that established for PAD2. (Mondal, et al. ACS Chem. Biol. 2018, 13, 1057-1065.) Briefly, PAD1 (2 μM final) was added to prewarmed (10 min at 37° C.) reaction mixture (100 mM TRIS pH 7.4, 50 mM NaCl, 10 mM CaCl2, and 2 mM DTT in a final volume of 30 μL) containing RFA (2 μM final) and DMSO or various concentrations of the inhibitor. […] In-gel fluorescence of the protein bands was recorded using a typhoon scanner (excitation/emission maxima of ˜546/579, respectively) and was quantified using ImageJ software. IC50 values of the inhibitors were obtained by plotting the relative decrease in the fluorescence intensity of protein bands against the concentration of inhibitor. […]

Here are results for two compounds from patent US12448358B2, “Inhibitors of protein arginine deiminase 1 and methods of preparation and use thereof” (University of Massachusetts, priority 2019, dated 2025).

Broadly, the IC50 is the concentration that gives 50% inhibition. Low readings indicate inhibition by little substance, high ones a need for much substance.

Consider `C#Cc1c(I)cc(C(=O)N[C@@H](CCCNC(=N)CF)c2nc3ccccc3[nH]2)c(O)c1I` [Compound 21], for which the “LOD of PAD1 in HEK293TPAD1 cells” value at PAD1 [1] is 72 pmol. For `N=C(CF)NCCC[C@H](NC(=O)c1cc(I)cc(I)c1O)c1nc2ccccc2[nH]1` [Compound 1], the IC50 against PAD1 [2] was 18 µM.
